Experiments:
[1] = system: Listeria monocytogenes ATCC49594; experiment: Antibacterial test in BHI culture medium: turbidity, inhibitory ratio and bacteria growth (Experimental Example 2); format: cell-based; conditions: for Number of bacteria (cfu/ml): culture 30° C. 24 hours, then BHI agar 37° C. 24 hours; for Inhibitory ratio (%): from turbidity vs dimethylsulfoxide standard; for Inhibitory ratio (%) / Turbidity of culture fluid: 30° C. for 24 hours; for Turbidity of culture fluid: 660 nm
Description: The above obtained isolated components were diluted with dimethylsulfoxide (manufactured by KANTO CHEMICAL CO., INC.) to prepare three test liquids at fraction concentrations (wt %) of 2%, 1% and 0.5%. As positive controls, erythromycin (manufactured by Wako Pure Chemical Industries Ltd.) was dissolved in ethanol (Junsei Chemical Co., Ltd.) to have a concentration of 1,000 ppm, 500 ppm or 250 ppm. As a negative control, sterilized water was used.
The antibacterial test was carried out by using Listeria monocytogenes ATCC49594 as follows.
(1) 8.9 ml of a brain heart infusion (BHI) culture medium (manufactured by NISSUI PHARMACEUTICAL CO., LTD.) was put in a test tube and treated in an autoclave (manufactured by TOMY SEIKO CO., LTD., TOMY BS-325). The culture medium concentration was adjusted to achieve a specified concentration when 0.1 ml of the above test liquid was added.
Listeria monocytogenes ATCC 49594 was cultured in the BHI culture medium by shake culture at 37° C. for 1 hour and diluted to an appropriate bacteria concentration (2.0×10^3 cfu/ml) by the BHI culture medium.
To the test tube in which 8.9 ml of the BHI culture medium prepared in the above (1) was put, 0.1 ml of the prepared test liquid and 1 ml of the bacteria liquid prepared in the above (2) were added, stirred and left at rest at 30° C. for 24 hours.
The turbidity of the culture fluid in the test tube left at rest at 30° C. for 24 hours was measured by a turbidimeter (manufactured by TAITEC CORPORATION, miniphoto 518R) at a wavelength of 660 nm. The inhibitory ratio was calculated from the following formula, where A is the turbidly in the case of a culture fluid to which 0.1 ml of dimethylsulfoxide was added instead of the test liquid.
Inhibitory ratio (%)=[(A−[turbidity of culture fluid])/A]×100
The culture fluid in the test tube left at rest at 30° C. for 24 hours was diluted with a phosphate buffer solution (PBS) and smeared on a BHI agar medium. After culturing at 37° C. for 24 hours, the number of bacteria on the agar medium was measured by observation with a microscope. With respect to the dilution with PBS, the culture fluid was preliminarily properly diluted within a range of from 10^2 to 10^9 times to such a concentration that the number of bacteria can be counted with a microscope 24 hour later (the number of bacteria 24 hours later was calibrated in accordance with the proportion preliminarily diluted with PBS).

[2] = system: Listeria monocytogenes JCM2873; experiment: Antibacterial test, colony formation on Mueller Hinton agar after culture with sample (Experimental Example 1); format: cell-based; conditions: 10 ppm at the time of test; 37° C. for 24 hours, then agar 37° C. for 2 days; negative control 3×10^8 cfu/ml
Description: The components (Terpenoid-1 and Terpenoid-2) isolated from the water-insoluble rosemary extract were dissolved in DMSO (dimethylsulfoxide) at a concentration of 2,000 ppm to obtain samples for antibacterial activity test. The antibacterial test was carried out as follows using Listeria monocytogenes JCM2873. 8.95 ml of Mueller Hinton Broth (MHB) culture medium was put in a test tube and sterilized in an autoclave. The culture medium concentration was adjusted to achieve a specified concentration when 50 μl of the sample was added. Listeria monocytogenes JCM2873 was cultured by shake culture at 37° C. for 1 day in the MHB culture medium, and diluted to an appropriate bacteria concentration (3.1×10^4 cfu/ml) by the MHB culture medium. To the test tube in which 8.95 ml of the MHB culture medium prepared in the above (1) was put, 50 μl of the sample and 1 ml of the bacteria liquid prepared in the above (2) were added and stirred (isolated component concentration at the time of test: 10 ppm) and left at rest at 37° C. for 24 hours. As a negative control and a positive control, sterilized water and erythromycin (solution at a concentration of 2,000 ppm in ethanol) were added instead of the sample. From the test tube left at rest at 37° C. for 24 hours, a loopful of the culture fluid was collected and smeared on a Mueller Hinton agar medium. After culturing at 37° C. for 2 days, formation of colonies on the agar medium and its degree were judged.

[3] = 50, 100, 200 ppm, same conditions as for Terpenoid-1 and Terpenoid-2
[4] = at a concentration of 50 ppm or higher

CCO[C@H]1c2cc(C(C)C)c(O)c(O)c2[C@@]23CCCC(C)(C)[C@@H]2[C@@H]1OC3=O [7α-Ethoxyrosmanol, 7α-ethoxyrosmanol]
antibacterial activity against Listeria monocytogenes (in words) [1, 3]: low or no antibacterial activity
Number of bacteria (cfu/ml) ([1]; added substance 50 ppm): 2.5 × 10^9 cfu/ml
Inhibitory ratio (%) ([1]; added substance 50 ppm): 4.0%
Number of bacteria (cfu/ml) ([1]; added substance 100 ppm): 3.6 × 10^9 cfu/ml
Inhibitory ratio (%) ([1]; added substance 100 ppm): 0.5%
Number of bacteria (cfu/ml) ([1]; added substance 200 ppm): 3.8 × 10^9 cfu/ml
Inhibitory ratio (%) ([1]; added substance 200 ppm): 2.6%

CC[C@H]1OC(=O)[C@H](C)[C@@H](O[C@H]2C[C@@](C)(OC)[C@@H](O)[C@H](C)O2)[C@H](C)[C@@H](O[C@@H]2O[C@H](C)C[C@H](N(C)C)[C@H]2O)[C@](C)(O)C[C@@H](C)C(=O)[C@H](C)[C@@H](O)[C@]1(C)O [Erythromycin, erythromycin]
formation of colonies on the agar medium [2]: no formation of colonies
Turbidity of culture fluid ([1]; added substance 2.5 ppm): 0.011
Number of bacteria (cfu/ml) ([1]; added substance 2.5 ppm): 3.7 × 10^2 cfu/ml
Inhibitory ratio (%) ([1]; added substance 2.5 ppm): 97.8%
Turbidity of culture fluid ([1]; added substance 5 ppm): 0.022
Number of bacteria (cfu/ml) ([1]; added substance 5 ppm): 9.5 × 10^2 cfu/ml
Inhibitory ratio (%) ([1]; added substance 5 ppm): 95.6%
Turbidity of culture fluid ([1]; added substance 10 ppm): −0.008
Number of bacteria (cfu/ml) ([1]; added substance 10 ppm): 1.8 × 10^2 cfu/ml
Inhibitory ratio (%) ([1]; added substance 10 ppm): 98.4%
antibacterial property (in words) ([1]; concentration range of from 2.5 to 10 ppm): high antibacterial property

CC(C)c1cc2c(cc1O)[C@H]1CCCC(C)(C)[C@@H]1CC2 [Terpenoid-2]
formation of colonies on the agar medium [2]: no formation of colonies
Turbidity of culture fluid ([1]; added substance 50 ppm): 0.472
Number of bacteria (cfu/ml) ([1]; added substance 50 ppm): 4.4 × 10^9 cfu/ml
Inhibitory ratio (%) ([1]; added substance 50 ppm): 7.2%
Turbidity of culture fluid ([1]; added substance 100 ppm): 0.402
Number of bacteria (cfu/ml) ([1]; added substance 100 ppm): 2.5 × 10^9 cfu/ml
Inhibitory ratio (%) ([1]; added substance 100 ppm): 21.0%
Turbidity of culture fluid ([1]; added substance 200 ppm): 0.268
Number of bacteria (cfu/ml) ([1]; added substance 200 ppm): 1.3 × 10^9 cfu/ml
Inhibitory ratio (%) ([1]; added substance 200 ppm): 47.2%
antibacterial activity against Listeria monocytogenes (in words) [1, 4]: confirmed to have antibacterial activity

CC(C)c1cc2c(c(O)c1O)[C@@]13CCCC(C)(C)[C@@H]1[C@H](OC3=O)[C@@H]2O [Epirosmanol]
antibacterial activity against Listeria monocytogenes (in words) [1, 3]: low or no antibacterial activity
Number of bacteria (cfu/ml) ([1]; added substance 50 ppm): 4.0 × 10^9 cfu/ml
Inhibitory ratio (%) ([1]; added substance 50 ppm): 0.0%
Number of bacteria (cfu/ml) ([1]; added substance 100 ppm): 4.2 × 10^9 cfu/ml
Inhibitory ratio (%) ([1]; added substance 100 ppm): 0.0%
Number of bacteria (cfu/ml) ([1]; added substance 200 ppm): 3.2 × 10^9 cfu/ml
Inhibitory ratio (%) ([1]; added substance 200 ppm): 0.0%

COc1c(C(C)C)cc2c(c1O)C1(C(=O)O)CCCC(C)(C)C1CC2 (stereo not drawn) [12-Methoxy-tarns-carnosic acid, 12-methoxy-trans-carnosic acid]
antibacterial activity against Listeria monocytogenes (in words) [1, 3]: low or no antibacterial activity
Number of bacteria (cfu/ml) ([1]; added substance 50 ppm): 3.1 × 10^9 cfu/ml
Inhibitory ratio (%) ([1]; added substance 50 ppm): 11.8%
Number of bacteria (cfu/ml) ([1]; added substance 100 ppm): 4.1 × 10^9 cfu/ml
Inhibitory ratio (%) ([1]; added substance 100 ppm): 17.7%
Number of bacteria (cfu/ml) ([1]; added substance 200 ppm): 4.3 × 10^9 cfu/ml
Inhibitory ratio (%) ([1]; added substance 200 ppm): 20.6%

CC(C)c1cc2c(c(O)c1O)[C@@]13CCCC(C)(C)[C@@H]1[C@H](OC3=O)[C@H]2O [Rosmanol]
antibacterial activity against Listeria monocytogenes (in words) [1, 3]: low or no antibacterial activity
Number of bacteria (cfu/ml) ([1]; added substance 50 ppm): 3.9 × 10^9 cfu/ml
Inhibitory ratio (%) ([1]; added substance 50 ppm): 10.2%
Number of bacteria (cfu/ml) ([1]; added substance 100 ppm): 3.7 × 10^9 cfu/ml
Inhibitory ratio (%) ([1]; added substance 100 ppm): 5.1%
Number of bacteria (cfu/ml) ([1]; added substance 200 ppm): 3.9 × 10^9 cfu/ml
Inhibitory ratio (%) ([1]; added substance 200 ppm): 16.0%

CC(C)c1cc2c(c(O)c1O)[C@@]13CCCC(C)(C)[C@@H]1C[C@@H]2OC3=O [Carnosol]
antibacterial activity against Listeria monocytogenes (in words) [1, 3]: low or no antibacterial activity
Number of bacteria (cfu/ml) ([1]; added substance 50 ppm): 4.3 × 10^9 cfu/ml
Inhibitory ratio (%) ([1]; added substance 50 ppm): 0.0%
Number of bacteria (cfu/ml) ([1]; added substance 100 ppm): 4.7 × 10^9 cfu/ml
Inhibitory ratio (%) ([1]; added substance 100 ppm): 0.0%
Number of bacteria (cfu/ml) ([1]; added substance 200 ppm): 3.9 × 10^9 cfu/ml
Inhibitory ratio (%) ([1]; added substance 200 ppm): 0.0%

CC(C)c1cc2c(cc1O)[C@@]1(C)CCCC(C)(C)[C@@H]1CC2 [Terpenoid-1, ferruginol]
formation of colonies on the agar medium [2]: no formation of colonies
Turbidity of culture fluid ([1]; added substance 50 ppm): 0.485
Number of bacteria (cfu/ml) ([1]; added substance 50 ppm): 3.8 × 10^9 cfu/ml
Inhibitory ratio (%) ([1]; added substance 50 ppm): 4.6%
Turbidity of culture fluid ([1]; added substance 100 ppm): 0.290
Number of bacteria (cfu/ml) ([1]; added substance 100 ppm): 1.6 × 10^9 cfu/ml
Inhibitory ratio (%) ([1]; added substance 100 ppm): 43.0%
Turbidity of culture fluid ([1]; added substance 200 ppm): −0.003
Number of bacteria (cfu/ml) ([1]; added substance 200 ppm): 3.8 × 10^6 cfu/ml
Inhibitory ratio (%) ([1]; added substance 200 ppm): 100%
antibacterial activity against Listeria monocytogenes (in words) [1, 4]: confirmed to have antibacterial activity

C=C(C)[C@@H]1CC[C@]2(C(=O)O)CC[C@]3(C)[C@H](CC[C@@H]4[C@@]5(C)CC[C@H](O)C(C)(C)[C@@H]5CC[C@]43C)[C@@H]12 [Betulinic acid]
Number of bacteria (cfu/ml) ([1]; added substance 50 ppm): 4.0 × 10^9 cfu/ml
Inhibitory ratio (%) ([1]; added substance 50 ppm): 0.0%
Number of bacteria (cfu/ml) ([1]; added substance 100 ppm): 4.5 × 10^9 cfu/ml
Inhibitory ratio (%) ([1]; added substance 100 ppm): 0.0%
Number of bacteria (cfu/ml) ([1]; added substance 200 ppm): 3.0 × 10^9 cfu/ml
Inhibitory ratio (%) ([1]; added substance 200 ppm): 0.0%
